Measured values as given in US20240287089A1, “Preparation and Uses of 7-Azaindenoisoquinolines” (Purdue Research Foundation, priority 0001, published 2024).
Where two headings read alike, the source gives them in different places.

Experiments:
[1] = tested on: K-562; test: MTS GI50, Myc-dependent panel; format: cell-based; details: K-562, 72 h, read-out: GI50
Description: (§1) Cytotoxicity Results in Myc-dependent Cancer Cell Lines.
(§2) MTS Cell Viability IC50 Assay. Drug solutions for MTS IC50 assays of suspension cell lines were made from DMSO stocks by serial-dilutions in 1×PBS (10010-031, Gibco). To set up treatments, drug solutions were plated in triplicates to 96-well tissue culture plates, to which cell-containing media was added to a total volume of 100 μL/well. 100%-viability controls were untreated cells. 2000 cells/well were plated for all suspension cell lines except 3000 cells/well for KMS-27 and 10000 cells/well for CHLA-32. Blanks were cell-free media. Drug treatments were maintained for 72 hr at 37° C. with 5% CO2. To quantify cells, CellTiter 96 AQueous MTS Reagent Powder (G1111, Promega) was dissolved and mixed with phenazine methosulfate (PMS, Sigma-Aldrich P9625) according to manufacturer's instructions. MTS/PMS mix ([…]) was added to treatment wells, 100%-viability control wells, and blank wells. Colors were developed at 37° C. with 5% CO2 for 4 h and absorbance at 490 nm was measured by BioTek Synergy 4 system. To obtain %-viability, A490 values were corrected by blank subtraction, normalized to 100%-viability control, and averaged. Average %-viabilities were plotted against drug dosages to obtain dose-response curves. […] For adherent cell lines, the MTS IC50 assays were conducted the same way as for suspension cell lines except for cell plating and drug treatment. For cell plating, 50 μL of 2000 cells were plated in triplicates to a 96-well tissue culture plate. Cells were allowed sufficient time to become adherent. Serial-diluted drug solutions were made the same way as in the MTS IC50 assays. To set up treatments, drug solutions were mixed with media to two-fold of the final concentrations, and 50 μL of such drug-media mix was then added to 50 μL of plated cells.

[2] = tested on: HL-60; test: MTS GI50, Myc-dependent panel; format: cell-based; details: HL-60, 72 h, read-out: GI50
Description: as §1, §2

[3] = tested on: CCRF-CRM; test: MTS GI50, Myc-dependent panel; format: cell-based; details: CCRF-CRM, 72 h; read-out: GI50
Description: as §1, §2

[4] = tested on: RS4;11; test: MTS GI50, Myc-dependent panel; format: cell-based; details: RS4;11, 72 h, read-out: GI50
Description: as §1, §2

[5] = tested on: MCF-7; test: MTS GI50, Myc-dependent panel; format: cell-based; details: MCF-7, 72 h, read-out: GI50
Description: as §1, §2

[6] = tested on: L-363; test: MTS GI50, Myc-dependent panel; format: cell-based; details: L-363, 72 h, read-out: GI50
Description: as §1, §2

[7] = tested on: Kasumi-1; test: MTS GI50, Myc-dependent panel; format: cell-based; details: Kasumi-1, 72 h, read-out: GI50
Description: as §1, §2

[8] = tested on: RPMI-8226; test: MTS GI50, Myc-dependent panel; format: cell-based; details: RPMI-8226, 72 h, read-out: GI50
Description: as §1, §2

[9] = tested on: AMO-1; test: MTS GI50, Myc-dependent panel; format: cell-based; details: AMO-1, 72 h, read-out: GI50
Description: as §1, §2

[10] = tested on: THP-1; test: MTS GI50, Myc-dependent panel; format: cell-based; details: THP-1, 72 h, read-out: GI50
Description: as §1, §2

[11] = tested on: ARD; test: MTS GI50, Myc-dependent panel; format: cell-based; details: ARD, 72 h; read-out: GI50
Description: as §1, §2

[12] = tested on: TC-106; test: MTS GI50, Myc-dependent panel; format: cell-based; details: TC-106, 72 h; read-out: GI50
Description: as §1, §2

[13] = tested on: CHLA-99; test: MTS GI50, Myc-dependent panel; format: cell-based; details: CHLA-99, 72 h; read-out: GI50
Description: as §1, §2

[14] = tested on: SK-N-MC; test: MTS GI50, Myc-dependent panel; format: cell-based; details: 72 h, read-out: GI50
Description: as §1, §2

[15] = tested on: KMS-27; test: MTS GI50, Myc-dependent panel; format: cell-based; details: KMS-27, 72 h; read-out: GI50
Description: as §1, §2

[16] = tested on: RD-ES; test: MTS GI50, Myc-dependent panel; format: cell-based; details: 72 h, read-out: GI50
Description: as §1, §2

[17] = tested on: CHLA-32; test: MTS GI50, Myc-dependent panel; format: cell-based; details: CHLA-32, 72 h; read-out: GI50
Description: as §1, §2

[18] = tested on: TC-71; test: MTS GI50, Myc-dependent panel; format: cell-based; details: TC-71, 72 h; read-out: GI50
Description: as §1, §2

[19] = tested on: TC-32; test: MTS GI50, Myc-dependent panel; format: cell-based; details: TC-32, 72 h, read-out: GI50
Description: as §1, §2

[20] = tested on: MDA-MB-231; test: MTS GI50, Myc-dependent panel; format: cell-based; details: MDA-MB-231, 72 h, read-out: GI50
Description: as §1, §2

[21] = tested on: MOLT-4; test: MTS GI50, Myc-dependent panel; format: cell-based; details: MOLT-4, 72 h, read-out: GI50
Description: as §1, §2

[22] = tested on: RAJI lymphoma cells; test: MTS cell viability IC50 assay; format: cell-based; details: 72 h
Description: Cytotoxicity Results in Raji Non-Hodgkin's Lymphoma Cells. MTS experiments were then conducted to test the anti-proliferative effects of 7-aza-8,9-methylenedioxyindenoisoquinolines in Raji cells. Cells were incubated at 2-2000 nM of each drug for 72 h, and cell viabilities were quantified using the MTS assay. […] This potency trend generally correlated with the western blot results, in which G106 and G108 […] show weaker Myc downregulation.
as §2

[23] = target: 3′-TAMRA-labeled MycG4 DNA; test: Fluorescence binding assay; details: 20° C., 100 mM K+ buffer, pH 7.0; read-out: Apparent Binding Affinity Kd, app
Description: Binding Affinity to the Myc G-Quadruplex. Binding affinity of eight 7-aza-8,9-methylenedioxyindenoisoquinolines to MycG4 was determined using a fluorescence binding assay with a 3′-TAMRA-labeled MycG4 DNA. Monitoring TAMRA emission upon drug titration afforded binding isotherms, from which apparent binding affinities, Kd,app, were derived.
Fluorescence-Based Binding Assays. Fluorescence-based binding assays were performed on a Jasco FP-8300 spectrofluorometer equipped with a temperature controller at 20° C. in a quartz cuvette with a 10 mm path length. 3′-TAMRA-labeled MycG4 DNA (Sigma-Aldrich) was diluted to 20 nM using a 75 mM KCl/25 mM potassium phosphate buffer, pH 7.0. […] Fluorescence intensity at 580 nm, the maximum for the free DNA, was plotted against drug:DNA ratio. The apparent binding dissociation constant, Kd,app, was derived for the binding of each compound. Using OriginPro software (OriginLab Corp., United States) the change in fluorescence intensity was fitted to a one-site binding equation,
where B0 is the initial fluorescence intensity, B is maximum change in fluorescence intensity, R is DNA concentration, and L is drug:DNA ratio.

[24] = human, 1 μM
Description: Analysis of Plasma Protein Binding and Stability in Human and Mouse Blood Plasma by Equilibrium Dialysis. Frozen plasma (stored at −80° C.) was thawed immediately in a 37° C. water bath. The working solutions of test compound and control compound were prepared in DMSO at 200 μM concentration, and the working solutions were spiked into plasma. The final concentration of compound was 1 μM. The final concentration of DMSO was 0.5%. Ketoconazole was used as positive control in the assay. The dialysis membranes were soaked in ultrapure water for 60 min to separate strips, then in 20% ethanol for 20 min, and then finally in dialysis buffer for 20 min. For equilibrium dialysis, each cell contained plasma sample (150 μL) and was dialyzed against an equal volume of dialysis buffer (PBS). The assay was performed in duplicate. The dialysis plate was sealed and incubated at 37° C. with 5% CO2 at 100 rpm for 6 h. At the end of incubation, samples (50 μL) from both buffer and plasma chambers were transferred to wells of a 96-well plate. Plasma (50 μL) was added to each buffer sample and an equal volume of PBS was added to the collected plasma sample. Cold acetonitrile (400 μL) containing internal standards (IS, 100 nM alprazolam, 200 nM labetalol, 200 nM imipramine and 2 μM ketoprofen) was added to precipitate protein and release compounds. Samples were vortexed for 2 min and centrifuged for 30 min at 3,220 g. An aliquot (100 μL) of the supernatant was diluted with ultra-pure H2O (100 μL), and the mixture was used for LC-MS/MS analysis. For stability determination in plasma, a spiked plasma sample (50 μL) was transferred to a new plate and incubated at 37° C., 5% CO2 for 0 and 6 h. At designated time points, PBS (50 μL) was added and mixed thoroughly, followed by the addition of room temperature quench solution [400 μL of acetonitrile containing internal standards (IS, 100 nM alprazolam, 200 nM labetalol, 200 nM imipramine and 2 μM ketoprofen)] to precipitate protein and release compounds. Samples were vortexed for 2 min and centrifuged for 30 min at 3,220 g. An aliquot (400 μL) of the supernatant was diluted by ultra-pure H2O, and the mixture was used for LC-MS/MS analysis. The concentrations of test compounds in the buffer and plasma chambers were determined from peak area ratios.

Structure (SMILES)	GI50 ([1]; Homo sapiens, K562)	GI50 ([2]; Homo sapiens)	GI50 [3]	GI50 ([4]; Homo sapiens)	GI50 ([5]; Homo sapiens, MCF7)	GI50 ([6]; Homo sapiens)	GI50 ([7]; Homo sapiens)	GI50 ([8]; Homo sapiens)	GI50 ([9]; Homo sapiens, AMO1)	GI50 ([10]; Homo sapiens)	GI50 [11]	GI50 [12]	GI50 [13]	GI50 ([14]; Homo sapiens)	GI50 [15]	GI50 [16]	GI50 [17]	GI50 [18]	GI50 ([19]; Homo sapiens)	GI50 ([20]; Homo sapiens)	further results
COc1cc2c3c(n(CCCN4CCOCC4)c(=O)c2cc1OC)-c1nc2c(cc1C3=O)OCO2 [G101, 2,3-Dimethoxy-6-(3-morpholinopropyl)-5H-[1,3]dioxolo[4″,5″:5′,6′]pyrido[3′,2′:4,5]cyclopenta[1,2-c]isoquinoline-5,12(6H)-dione]	1.01 µM	> 2 µM	0.248 µM	0.283 µM	> 2 µM	0.342 µM	> 2 µM	0.905 µM	1.22 µM	1.32 µM	0.19 µM	0.848 µM	0.526 µM	0.698 µM	0.53 µM	0.608 µM	0.708 µM	0.756 µM	0.569 µM	> 2 µM	GI50 ([21]; Homo sapiens): 0.113 µM; IC50 ([22]; Homo sapiens, Raji): 0.34 µM; Kd [23]: 0.249 µM
COc1cc2c3c(n(CCCn4ccnc4)c(=O)c2cc1OC)-c1nc2c(cc1C3=O)OCO2 [G102, 6-(3-(1H-Imidazol-1-yl)propyl)-2,3-dimethoxy-5H-[1,3]dioxolo[4″,5″:5′,6′]pyrido[3′,2′:4,5]cyclopenta[1,2-c]isoquinoline-5,12(6H)-dione]	0.58 µM	> 2 µM	0.117 µM	0.12 µM	> 2 µM	0.232 µM	> 2 µM	0.481 µM	0.804 µM	1.02 µM	0.111 µM	0.229 µM	0.265 µM	0.17 µM	0.238 µM	0.18 µM	0.28 µM	0.199 µM	0.127 µM	1.05 µM	GI50 ([21]; Homo sapiens): 0.043 µM; IC50 ([22]; Homo sapiens, Raji): 0.153 µM; Kd [23]: 0.147 µM
COc1cc2c3c(n(CCCNC(C)C)c(=O)c2cc1OC)-c1nc2c(cc1C3=O)OCO2 [G103, 6-(3-(Isopropylamino)propyl)-2,3-dimethoxy-5H-[1,3]dioxolo [4″,5″:5′,6′]pyrido[3′,2′:4,5]cyclopenta[1,2-c]isoquinoline-5,12(6H)-dione]	0.182 µM	0.328 µM	0.057 µM	0.053 µM	> 2 µM	0.126 µM	0.432 µM	0.234 µM	0.317 µM	0.602 µM	0.07 µM	0.202 µM	0.089 µM	0.15 µM	0.206 µM	0.031 µM	0.055 µM	0.153 µM	0.055 µM	0.644 µM	GI50 ([21]; Homo sapiens): 0.019 µM; IC50 ([22]; Homo sapiens, Raji): 0.167 µM; % Stability at 6 hrs [24]: 94.96%
CCNCCCn1c2c(c3cc(OC)c(OC)cc3c1=O)C(=O)c1cc3c(nc1-2)OCO3 [G104, 6-(3-(Ethylamino)propyl)-2,3-dimethoxy-5H-[1,3]dioxolo[4″,5″:5′,6′]pyrido [3′,2′:4,5]cyclopenta[1,2-c]isoquinoline-5,12(6H)-dione]	0.158 µM	0.27 µM	0.049 µM	0.038 µM	> 2 µM	0.096 µM	0.266 µM	0.19 µM	0.184 µM	0.358 µM	0.055 µM	0.157 µM	0.058 µM	0.137 µM	0.141 µM	0.02 µM	0.033 µM	0.122 µM	0.053 µM	0.476 µM	GI50 ([21]; Homo sapiens): 0.013 µM; IC50 ([22]; Homo sapiens, Raji): 0.131 µM; % Stability at 6 hrs [24]: 86.15%; Kd [23]: 0.055 µM
COc1cc2c3c(n(CCCNCCO)c(=O)c2cc1OC)-c1nc2c(cc1C3=O)OCO2 [G105, 6-(3-((2-Hydroxyethyl)amino)propyl)-2,3-dimethoxy-5H-[1,3]dioxolo[4″,5″:5′,6′]pyrido[3′,2′:4,5]cyclopenta[1,2-c]isoquinoline-5,12(6H)-dione]	0.196 µM	0.29 µM	0.057 µM	0.034 µM	1.39 µM	0.154 µM	0.53 µM	0.559 µM	0.461 µM	0.3 µM	0.121 µM	0.202 µM	0.031 µM	0.173 µM	0.141 µM	0.022 µM	0.096 µM	0.197 µM	0.104 µM	0.806 µM	GI50 ([21]; Homo sapiens): 0.012 µM; IC50 ([22]; Homo sapiens, Raji): 0.147 µM; % Stability at 6 hrs [24]: 95.42%; Kd [23]: 0.097 µM
COc1cc2c3c(n(CCCN4CCOCC4)c(=O)c2cc1OC)-c1cc2c(cc1C3=O)OCO2 [LMP400, indotecan]	0.864 µM	1.39 µM	0.316 µM	0.336 µM	> 2 µM	0.214 µM	> 2 µM	0.989 µM	0.738 µM	0.915 µM	0.126 µM	0.605 µM	0.773 µM	1.05 µM	0.543 µM	0.472 µM	0.812 µM	1.06 µM	0.574 µM	1.9 µM	GI50 ([21]; Homo sapiens): 0.239 µM; IC50 ([22]; Homo sapiens, Raji): 0.19 µM; Kd [23]: 0.301 µM
COc1cc2c3c(n(CCCNCCO)c(=O)c2cc1OC)-c1cc2c(cc1C3=O)OCO2 [LMP744]			0.057 µM								0.077 µM	0.277 µM	0.077 µM		0.19 µM	0.024 µM	0.156 µM	0.244 µM			GI50 [1]: 0.219 µM; GI50 [2]: 0.354 µM; GI50 [4]: 0.03 µM; GI50 [5]: > 2 µM; GI50 [6]: 0.119 µM; GI50 [7]: 0.721 µM; GI50 [8]: 0.62 µM; GI50 [9]: 0.285 µM; GI50 [10]: 0.305 µM; GI50 [14]: 0.237 µM; GI50 [19]: 0.121 µM; GI50 [20]: 0.968 µM; GI50 [21]: 0.004 µM; IC50 ([22]; RAJI): 0.12 µM; Kd [23]: 0.011 µM
